Data: PMC10893631, “Receptor-based pharmacophore modeling, molecular docking, synthesis and biological evaluation of novel VEGFR-2, FGFR-1, and BRAF multi-kinase inhibitors” (BMC Chemistry, 2024)

Assays:
Assay in all cases: NCI SRB growth inhibition (single dose 10 µM / five-dose)
Assay type in all cases: cell-based, human
[1] = system: SR; details: Homo sapiens; for inhibition at 10 µM: SR (Leukemia), read-out: GI%; for GI50: SR, Leukemia, five-dose
Method in brief: (§1)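 Percent growth relative to untreated control and time-zero cell mass, determined by SRB. Five drug levels (10-fold or half-log steps) plus control; time-zero plates fixed 24 h after seeding.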

[2] = system: MCF7; details: Homo sapiens; for inhibition at 10 µM: MCF7 (Breast cancer), read-out: GI%; for GI50: MCF7, Breast cancer, five-dose
Method in brief: as §1

[3] = system: MDA-MB-468; details: Homo sapiens; for inhibition at 10 µM: MDA-MB-468 (Breast cancer), read-out: GI%; for GI50: MDA-MB-468, Breast cancer, five-dose
Method in brief: as §1

[4] = system: SNB-19; details: Homo sapiens; for inhibition at 10 µM: SNB-19 (CNS cancer), read-out: GI%; for GI50: SNB-19, CNS cancer, five-dose
Method in brief: as §1

[5] = system: ACHN; details: Homo sapiens; for inhibition at 10 µM: ACHN (Renal cancer), read-out: GI%; for GI50: ACHN, Renal cancer, five-dose
Method in brief: as §1

[6] = system: TK-10; details: Homo sapiens; for inhibition at 10 µM: TK-10 (Renal cancer), read-out: GI%; for GI50: TK-10, Renal cancer, five-dose
Method in brief: as §1

[7] = system: HCT-116; details: Homo sapiens, HCT-116; for inhibition at 10 µM: read-out: GI%
Method in brief: as §1

[8] = system: HS 578 T; details: Homo sapiens; for inhibition at 10 µM: HS 578 T (Breast cancer), read-out: GI%; for GI50: HS 578 T, Breast cancer, five-dose
Method in brief: as §1

[9] = system: HOP-62; details: Homo sapiens; for inhibition at 10 µM: HOP-62 (Non-small cell lung cancer), read-out: GI%; for GI50: HOP-62, Non-small cell lung cancer, five-dose
Method in brief: as §1

[10] = system: A498; details: Homo sapiens; for inhibition at 10 µM: A498 (Renal cancer), read-out: GI%; for GI50: A498, Renal cancer, five-dose
Method in brief: as §1

[11] = system: NCI-H460; details: Homo sapiens; for inhibition at 10 µM: NCI-H460 (Non-small cell lung cancer), read-out: GI%; for GI50: NCI-H460, Non-small cell lung cancer, five-dose
Method in brief: as §1

[12] = system: MOLT-4; details: Homo sapiens; for inhibition at 10 µM: MOLT-4 (Leukemia), read-out: GI%; for GI50: MOLT-4, Leukemia, five-dose
Method in brief: as §1

[13] = system: SW-620; details: Homo sapiens; for inhibition at 10 µM: SW-620 (Colon cancer), read-out: GI%; for GI50: SW-620, Colon cancer, five-dose
Method in brief: as §1

[14] = system: HCT-15; details: Homo sapiens; for inhibition at 10 µM: HCT-15 (Colon cancer), read-out: GI%; for GI50: HCT-15, Colon cancer, five-dose
Method in brief: as §1

[15] = system: T-47D; details: Homo sapiens, T47D; for inhibition at 10 µM: T-47D (Breast cancer), read-out: GI%; for GI50: T-47D, Breast cancer, five-dose
Method in brief: as §1

[16] = system: EKVX; details: Homo sapiens; for inhibition at 10 µM: EKVX (Non-small cell lung cancer), read-out: GI%; for GI50: EKVX, Non-small cell lung cancer, five-dose
Method in brief: as §1

[17] = system: OVCAR-8; details: Homo sapiens; for inhibition at 10 µM: OVCAR-8 (Ovarian cancer), read-out: GI%; for GI50: OVCAR-8, Ovarian cancer, five-dose
Method in brief: as §1

[18] = system: OVCAR-5; details: Homo sapiens; for inhibition at 10 µM: OVCAR-5 (Ovarian cancer), read-out: GI%; for GI50: OVCAR-5, Ovarian cancer, five-dose
Method in brief: as §1

[19] = system: MALME-3 M; details: Homo sapiens; for inhibition at 10 µM: MALME-3 M (Melanoma), read-out: GI%; for GI50: MALME-3 M, Melanoma, five-dose
Method in brief: as §1

[20] = system: HCC-2998; details: Homo sapiens; for inhibition at 10 µM: HCC-2998 (Colon cancer), read-out: GI%; for GI50: HCC-2998, Colon cancer, five-dose
Method in brief: as §1

[21] = system: COLO 205; details: Homo sapiens; for inhibition at 10 µM: COLO 205 (Colon cancer), read-out: GI%; for GI50: COLO 205, Colon cancer, five-dose
Method in brief: as §1

[22] = system: A549/ATCC; details: Homo sapiens; for inhibition at 10 µM: A549/ATCC (Non-small cell lung cancer), read-out: GI%; for GI50: A549/ATCC, Non-small cell lung cancer, five-dose
Method in brief: as §1

[23] = system: CAKI-1; details: Homo sapiens; for inhibition at 10 µM: CAKI-1 (Renal cancer), read-out: GI%; for GI50: CAKI-1, Renal cancer, five-dose
Method in brief: as §1

[24] = system: MDA-MB-435; details: Homo sapiens; for inhibition at 10 µM: MDA-MB-435 (Melanoma), read-out: GI%; for GI50: MDA-MB-435, Melanoma, five-dose
Method in brief: as §1

SMILES: COc1ccc(-c2nc3cc(C(=O)NN=Cc4cccc(OC)c4O)ccc3[nH]2)cc1 [8k, N'-(2-Hydroxy-3-methoxybenzylidene)-2-(4-methoxyphenyl)-1H-benzo[d]imidazole-5-carbohydrazide]
- inhibition at 10 µM [1]: > 100%
- GI50 [1]: 2060 nM
- inhibition at 10 µM [2]: > 100%
- GI50 [2]: 1720 nM
- inhibition at 10 µM [3]: > 100%
- GI50 [3]: 1950 nM
- inhibition at 10 µM [4]: > 100%
- GI50 [4]: 3330 nM
- inhibition at 10 µM [5]: 87.7%
- GI50 [5]: 4190 nM
- inhibition at 10 µM [6]: 40%
- GI50 [6]: > 100 µM
- GI50 [7]: 2900 nM
- inhibition at 10 µM [7]: > 100%
- inhibition at 10 µM [8]: 89.3%
- GI50 [8]: 2220 nM
- inhibition at 10 µM [9]: > 100%
- GI50 [9]: 3110 nM
- inhibition at 10 µM [10]: < 5%
- GI50 [10]: > 100 µM
- inhibition at 10 µM [11]: > 100%
- GI50 [11]: 3270 nM
- inhibition at 10 µM [12]: > 100%
- GI50 [12]: 3800 nM
- inhibition at 10 µM [13]: 98.8%
- GI50 [13]: 4350 nM
- inhibition at 10 µM [14]: 78.1%
- GI50 [14]: 3350 nM
- inhibition at 10 µM [15]: 95%
- GI50 [15]: 3480 nM
- inhibition at 10 µM [16]: 98.1%
- GI50 [16]: 2.3 µM
- inhibition at 10 µM [17]: > 100%
- GI50 [17]: 2710 nM
- inhibition at 10 µM [18]: 69.5%
- GI50 [18]: 7.72 µM
- inhibition at 10 µM [19]: > 100%
- GI50 [19]: 1090 nM
- inhibition at 10 µM [20]: > 100%
- GI50 [20]: 2330 nM
- inhibition at 10 µM [21]: > 100%
- GI50 [21]: 3940 nM
- inhibition at 10 µM [22]: 76.7%
- GI50 [22]: 9.04 µM
- inhibition at 10 µM [23]: 84.6%
- GI50 [23]: 3640 nM
- inhibition at 10 µM [24]: 76%
- GI50 [24]: 6.2 µM

SMILES: COc1ccc(-c2nc3cc(C(=O)NN=Cc4ccc(OC)c(O)c4)ccc3[nH]2)cc1 [8l, N'-(3-Hydroxy-4-methoxybenzylidene)-2-(4-methoxyphenyl)-1H-benzo[d]imidazole-5-carbohydrazide]
- inhibition at 10 µM [1]: 72.2%
- inhibition at 10 µM [2]: 77.8%
- inhibition at 10 µM [3]: 44.4%
- inhibition at 10 µM [4]: 16.1%
- inhibition at 10 µM [5]: < 5%
- inhibition at 10 µM [6]: < 5%
- inhibition at 10 µM [7]: 43.8%
- inhibition at 10 µM [8]: 46.2%
- inhibition at 10 µM [9]: 55.5%
- inhibition at 10 µM [10]: < 5%
- inhibition at 10 µM [11]: 15%
- inhibition at 10 µM [12]: 78.6%
- inhibition at 10 µM [13]: 21.8%
- inhibition at 10 µM [14]: < 5%
- inhibition at 10 µM [15]: 52.5%
- inhibition at 10 µM [16]: 12.9%
- inhibition at 10 µM [17]: 28.1%
- inhibition at 10 µM [18]: < 5%
- inhibition at 10 µM [19]: 87.6%
- inhibition at 10 µM [20]: 15%
- inhibition at 10 µM [21]: 76.8%
- inhibition at 10 µM [22]: 5.94%
- inhibition at 10 µM [23]: < 5%
- inhibition at 10 µM [24]: 26.5%

SMILES: COc1ccc(-c2nc3cc(C(=O)NN=Cc4cc(OC)ccc4OC)ccc3[nH]2)cc1 [8m, N'-(2,5-Dimethoxybenzylidene)-2-(4-methoxyphenyl)-1H-benzo[d]imidazole-5-carbohydrazide]
- inhibition at 10 µM [1]: 28.5%
- inhibition at 10 µM [2]: 20.6%
- inhibition at 10 µM [3]: 16.2%
- inhibition at 10 µM [4]: < 5%
- inhibition at 10 µM [5]: 8.59%
- inhibition at 10 µM [6]: < 5%
- inhibition at 10 µM [7]: 22.3%
- inhibition at 10 µM [8]: < 5%
- inhibition at 10 µM [9]: 19.4%
- inhibition at 10 µM [10]: < 5%
- inhibition at 10 µM [11]: < 5%
- inhibition at 10 µM [12]: 35.8%
- inhibition at 10 µM [13]: < 5%
- inhibition at 10 µM [14]: 13.7%
- inhibition at 10 µM [15]: 40.6%
- inhibition at 10 µM [16]: 10.6%
- inhibition at 10 µM [17]: 23.6%
- inhibition at 10 µM [18]: < 5%
- inhibition at 10 µM [19]: 18.3%
- inhibition at 10 µM [20]: < 5%
- inhibition at 10 µM [21]: < 5%
- inhibition at 10 µM [22]: 13.7%
- inhibition at 10 µM [23]: < 5%
- inhibition at 10 µM [24]: < 5%

SMILES: COc1ccc(-c2nc3cc(C(=O)NN=Cc4cc(OC)c(OC)c(OC)c4)ccc3[nH]2)cc1 [8n, 2-(4-Methoxyphenyl)-N'-(3,4,5-trimethoxybenzylidene)-1H-benzo[d]imidazole-5-carbohydrazide]
- inhibition at 10 µM [1]: 26.9%
- inhibition at 10 µM [2]: 73.1%
- inhibition at 10 µM [3]: < 5%
- inhibition at 10 µM [4]: 36.2%
- inhibition at 10 µM [5]: 9.17%
- inhibition at 10 µM [6]: < 5%
- inhibition at 10 µM [7]: 23.4%
- inhibition at 10 µM [8]: 37.7%
- inhibition at 10 µM [9]: 14.6%
- inhibition at 10 µM [10]: < 5%
- inhibition at 10 µM [11]: < 5%
- inhibition at 10 µM [12]: 22.1%
- inhibition at 10 µM [13]: < 5%
- inhibition at 10 µM [14]: < 5%
- inhibition at 10 µM [15]: 38.1%
- inhibition at 10 µM [16]: < 5%
- inhibition at 10 µM [17]: 15%
- inhibition at 10 µM [18]: < 5%
- inhibition at 10 µM [19]: 76.8%
- inhibition at 10 µM [20]: < 5%
- inhibition at 10 µM [21]: 33.7%
- inhibition at 10 µM [22]: < 5%
- inhibition at 10 µM [23]: 23.8%
- inhibition at 10 µM [24]: 25%

SMILES: O=C(NN=Cc1ccccc1O)c1ccc2[nH]c(-c3ccc(Cl)cc3)nc2c1 [8o, 2-(4-Chlorophenyl)-N'-(2-hydroxybenzylidene)-1H-benzo[d]imidazole-5-carbohydrazide]
- inhibition at 10 µM [1]: 75.2%
- GI50 [1]: 120 nM
- inhibition at 10 µM [2]: 93.7%
- GI50 [2]: 160 nM
- inhibition at 10 µM [3]: > 100%
- GI50 [3]: 1510 nM
- inhibition at 10 µM [4]: > 100%
- GI50 [4]: 1120 nM
- inhibition at 10 µM [5]: 94.2%
- GI50 [5]: 810 nM
- inhibition at 10 µM [6]: 95%
- GI50 [6]: 5.08 µM
- GI50 [7]: 1080 nM
- inhibition at 10 µM [7]: 98.4%
- inhibition at 10 µM [8]: > 100%
- GI50 [8]: 260 nM
- GI50 [9]: 840 nM
- inhibition at 10 µM [10]: 53.9%
- GI50 [10]: 8.1 µM
- inhibition at 10 µM [11]: > 100%
- GI50 [11]: 250 nM
- inhibition at 10 µM [12]: 60.8%
- GI50 [12]: 280 nM
- inhibition at 10 µM [13]: > 100%
- GI50 [13]: 330 nM
- inhibition at 10 µM [14]: > 100%
- GI50 [14]: 200 nM
- GI50 [15]: 1480 nM
- inhibition at 10 µM [16]: 67.2%
- GI50 [16]: 9.31 µM
- inhibition at 10 µM [17]: > 100%
- GI50 [17]: 980 nM
- inhibition at 10 µM [18]: 55.9%
- GI50 [18]: 2.12 µM
- inhibition at 10 µM [19]: > 100%
- GI50 [19]: 1030 nM
- inhibition at 10 µM [20]: 78%
- GI50 [20]: 1380 nM
- GI50 [21]: 890 nM
- inhibition at 10 µM [22]: 87%
- GI50 [22]: 1.8 µM
- inhibition at 10 µM [23]: > 100%
- GI50 [23]: 220 nM
- inhibition at 10 µM [24]: > 100%
- GI50 [24]: 0.53 µM
